Source: the kinase profiling compilation of Christmann-Franck et al. (2016)

Assays:
Test in all cases: radiometric filter-binding kinase assay, Kinase HotSpot
Settings in all cases: compound 0.5 µM; ATP 10 µM
RPS6KA5 KD2 (human) = RPS6KA5 KD2 (human) (UniProt O75582)
NEK6 (human) = NEK6 (human) (UniProt Q9HC98)
CLK2 (human) = CLK2 (human) (UniProt P49760)
MYLK2 (human) = MYLK2 (human) (UniProt Q9H1R3)
AURKB (human) = AURKB (human) (UniProt Q96GD4)
EPHA3 (human) = EPHA3 (human) (UniProt P29320)
PLK3 (human) = PLK3 (human) (UniProt Q9H4B4)
MATK (human) = MATK (human) (UniProt P42679)
SIK2 (human) = SIK2 (human) (UniProt Q9H0K1)
TEC (human) = TEC (human) (UniProt P42680)
TGFBR1 (human) = TGFBR1 (human) (UniProt P36897)
MAPK3 (human) = MAPK3 (human) (UniProt P27361)
HIPK2 (human) = HIPK2 (human) (UniProt Q9H2X6)
PRKD2 (human) = PRKD2 (human) (UniProt Q9BZL6)
PRKCD (human) = PRKCD (human) (UniProt Q05655)
ERBB4 (human) = ERBB4 (human) (UniProt Q15303)
MYLK (human) = MYLK (human) (UniProt Q15746)
SRMS (human) = SRMS (human) (UniProt Q9H3Y6)
NEK4 (human) = NEK4 (human) (UniProt P51957)
TBK1 (human) = TBK1 (human) (UniProt Q9UHD2)
NEK9 (human) = NEK9 (human) (UniProt Q8TD19)
PTK2B (human) = PTK2B (human) (UniProt Q14289)
RET (human) = RET (human) (UniProt P07949)
ACVR1 (human) = ACVR1 (human) (UniProt Q04771)
FRK (human) = FRK (human) (UniProt P42685)
PDPK1 (human) = PDPK1 (human) (UniProt O15530)
MUSK (human) = MUSK (human) (UniProt O15146)
CDK2 CCNE1 (human) = CDK2 CCNE1 (human) (UniProt P24941+P24864)
[1] = biological target: JAK1 JH1 catalytic (human) (UniProt P23458)
SRPK2 (human) = SRPK2 (human) (UniProt P78362)
NEK2 (human) = NEK2 (human) (UniProt P51955)
FGFR2 (human) = FGFR2 (human) (UniProt P21802)
EPHB4 (human) = EPHB4 (human) (UniProt P54760)
DAPK2 (human) = DAPK2 (human) (UniProt Q9UIK4)
NEK1 (human) = NEK1 (human) (UniProt Q96PY6)
CSNK1D (human) = CSNK1D (human) (UniProt P48730)
PRKCH (human) = PRKCH (human) (UniProt P24723)
CHEK1 (human) = CHEK1 (human) (UniProt O14757)
BTK (human) = BTK (human) (UniProt Q06187)
NUAK2 (human) = NUAK2 (human) (UniProt Q9H093)
IRAK1 (human) = IRAK1 (human) (UniProt P51617)
CDK7 CCNH MNAT1 (human) = CDK7 CCNH MNAT1 (human) (UniProt P50613+P51948+P51946)

DAPK2 (human), sequence (Q9UIK4 whole entry, looked up): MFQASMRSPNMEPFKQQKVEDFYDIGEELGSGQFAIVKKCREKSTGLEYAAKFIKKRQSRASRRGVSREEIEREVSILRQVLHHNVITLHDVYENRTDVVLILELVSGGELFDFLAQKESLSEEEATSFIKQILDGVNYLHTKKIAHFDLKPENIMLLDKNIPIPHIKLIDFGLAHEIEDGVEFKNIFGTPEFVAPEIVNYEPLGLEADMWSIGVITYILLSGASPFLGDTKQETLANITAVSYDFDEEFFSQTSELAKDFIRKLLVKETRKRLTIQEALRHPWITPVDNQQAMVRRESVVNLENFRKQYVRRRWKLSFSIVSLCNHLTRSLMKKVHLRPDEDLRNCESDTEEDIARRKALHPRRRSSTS
PDPK1 (human), sequence (O15530 whole entry, looked up): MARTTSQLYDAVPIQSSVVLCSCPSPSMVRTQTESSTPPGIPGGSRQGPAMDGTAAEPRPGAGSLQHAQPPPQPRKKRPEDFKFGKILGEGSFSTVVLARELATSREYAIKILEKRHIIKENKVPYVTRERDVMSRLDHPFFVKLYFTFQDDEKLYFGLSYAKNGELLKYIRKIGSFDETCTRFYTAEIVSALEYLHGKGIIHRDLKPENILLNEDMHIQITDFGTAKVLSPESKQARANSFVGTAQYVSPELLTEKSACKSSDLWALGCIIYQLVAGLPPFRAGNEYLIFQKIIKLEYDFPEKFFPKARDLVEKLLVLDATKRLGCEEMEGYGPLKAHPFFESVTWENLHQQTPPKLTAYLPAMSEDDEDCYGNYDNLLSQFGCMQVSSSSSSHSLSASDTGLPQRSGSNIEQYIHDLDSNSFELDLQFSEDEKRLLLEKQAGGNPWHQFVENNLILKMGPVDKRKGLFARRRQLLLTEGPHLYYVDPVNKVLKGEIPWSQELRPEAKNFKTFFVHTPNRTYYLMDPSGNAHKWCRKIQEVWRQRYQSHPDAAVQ
TEC (human), sequence (P42680 whole entry, looked up): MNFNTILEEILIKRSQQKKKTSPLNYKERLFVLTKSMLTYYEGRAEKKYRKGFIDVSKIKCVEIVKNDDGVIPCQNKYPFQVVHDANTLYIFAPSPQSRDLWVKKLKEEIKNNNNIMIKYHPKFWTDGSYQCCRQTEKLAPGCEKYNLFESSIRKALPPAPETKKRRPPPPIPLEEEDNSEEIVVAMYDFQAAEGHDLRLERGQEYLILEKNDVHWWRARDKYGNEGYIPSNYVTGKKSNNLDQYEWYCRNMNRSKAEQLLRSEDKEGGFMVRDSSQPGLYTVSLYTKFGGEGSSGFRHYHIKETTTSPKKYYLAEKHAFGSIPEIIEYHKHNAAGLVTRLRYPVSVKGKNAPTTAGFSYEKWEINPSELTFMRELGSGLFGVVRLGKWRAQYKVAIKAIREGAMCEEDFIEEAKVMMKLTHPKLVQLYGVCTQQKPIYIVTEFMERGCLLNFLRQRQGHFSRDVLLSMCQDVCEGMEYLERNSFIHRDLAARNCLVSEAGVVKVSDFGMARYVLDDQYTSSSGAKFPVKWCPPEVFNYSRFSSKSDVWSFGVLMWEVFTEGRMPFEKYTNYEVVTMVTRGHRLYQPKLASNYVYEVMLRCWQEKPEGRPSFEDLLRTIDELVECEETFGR
IRAK1 (human), sequence (P51617 whole entry, looked up): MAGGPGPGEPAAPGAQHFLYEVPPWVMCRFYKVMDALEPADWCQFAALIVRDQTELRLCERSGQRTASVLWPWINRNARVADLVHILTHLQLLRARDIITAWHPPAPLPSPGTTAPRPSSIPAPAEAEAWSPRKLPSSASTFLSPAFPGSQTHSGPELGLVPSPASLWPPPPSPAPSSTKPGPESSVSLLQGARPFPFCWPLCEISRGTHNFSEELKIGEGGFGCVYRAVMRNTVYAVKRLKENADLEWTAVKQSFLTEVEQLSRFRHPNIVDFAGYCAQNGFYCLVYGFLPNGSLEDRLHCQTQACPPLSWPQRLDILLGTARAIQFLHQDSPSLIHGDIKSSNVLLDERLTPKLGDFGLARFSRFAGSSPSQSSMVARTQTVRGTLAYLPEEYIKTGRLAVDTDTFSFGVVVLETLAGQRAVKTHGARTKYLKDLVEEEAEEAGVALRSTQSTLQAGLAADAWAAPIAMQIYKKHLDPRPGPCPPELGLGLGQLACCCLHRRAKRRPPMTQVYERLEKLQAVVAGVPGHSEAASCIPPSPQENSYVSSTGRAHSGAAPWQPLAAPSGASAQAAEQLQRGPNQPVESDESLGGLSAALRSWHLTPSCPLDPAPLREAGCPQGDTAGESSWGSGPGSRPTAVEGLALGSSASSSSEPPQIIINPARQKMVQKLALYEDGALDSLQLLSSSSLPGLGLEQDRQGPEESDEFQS
MYLK (human), sequence (Q15746 whole entry, looked up): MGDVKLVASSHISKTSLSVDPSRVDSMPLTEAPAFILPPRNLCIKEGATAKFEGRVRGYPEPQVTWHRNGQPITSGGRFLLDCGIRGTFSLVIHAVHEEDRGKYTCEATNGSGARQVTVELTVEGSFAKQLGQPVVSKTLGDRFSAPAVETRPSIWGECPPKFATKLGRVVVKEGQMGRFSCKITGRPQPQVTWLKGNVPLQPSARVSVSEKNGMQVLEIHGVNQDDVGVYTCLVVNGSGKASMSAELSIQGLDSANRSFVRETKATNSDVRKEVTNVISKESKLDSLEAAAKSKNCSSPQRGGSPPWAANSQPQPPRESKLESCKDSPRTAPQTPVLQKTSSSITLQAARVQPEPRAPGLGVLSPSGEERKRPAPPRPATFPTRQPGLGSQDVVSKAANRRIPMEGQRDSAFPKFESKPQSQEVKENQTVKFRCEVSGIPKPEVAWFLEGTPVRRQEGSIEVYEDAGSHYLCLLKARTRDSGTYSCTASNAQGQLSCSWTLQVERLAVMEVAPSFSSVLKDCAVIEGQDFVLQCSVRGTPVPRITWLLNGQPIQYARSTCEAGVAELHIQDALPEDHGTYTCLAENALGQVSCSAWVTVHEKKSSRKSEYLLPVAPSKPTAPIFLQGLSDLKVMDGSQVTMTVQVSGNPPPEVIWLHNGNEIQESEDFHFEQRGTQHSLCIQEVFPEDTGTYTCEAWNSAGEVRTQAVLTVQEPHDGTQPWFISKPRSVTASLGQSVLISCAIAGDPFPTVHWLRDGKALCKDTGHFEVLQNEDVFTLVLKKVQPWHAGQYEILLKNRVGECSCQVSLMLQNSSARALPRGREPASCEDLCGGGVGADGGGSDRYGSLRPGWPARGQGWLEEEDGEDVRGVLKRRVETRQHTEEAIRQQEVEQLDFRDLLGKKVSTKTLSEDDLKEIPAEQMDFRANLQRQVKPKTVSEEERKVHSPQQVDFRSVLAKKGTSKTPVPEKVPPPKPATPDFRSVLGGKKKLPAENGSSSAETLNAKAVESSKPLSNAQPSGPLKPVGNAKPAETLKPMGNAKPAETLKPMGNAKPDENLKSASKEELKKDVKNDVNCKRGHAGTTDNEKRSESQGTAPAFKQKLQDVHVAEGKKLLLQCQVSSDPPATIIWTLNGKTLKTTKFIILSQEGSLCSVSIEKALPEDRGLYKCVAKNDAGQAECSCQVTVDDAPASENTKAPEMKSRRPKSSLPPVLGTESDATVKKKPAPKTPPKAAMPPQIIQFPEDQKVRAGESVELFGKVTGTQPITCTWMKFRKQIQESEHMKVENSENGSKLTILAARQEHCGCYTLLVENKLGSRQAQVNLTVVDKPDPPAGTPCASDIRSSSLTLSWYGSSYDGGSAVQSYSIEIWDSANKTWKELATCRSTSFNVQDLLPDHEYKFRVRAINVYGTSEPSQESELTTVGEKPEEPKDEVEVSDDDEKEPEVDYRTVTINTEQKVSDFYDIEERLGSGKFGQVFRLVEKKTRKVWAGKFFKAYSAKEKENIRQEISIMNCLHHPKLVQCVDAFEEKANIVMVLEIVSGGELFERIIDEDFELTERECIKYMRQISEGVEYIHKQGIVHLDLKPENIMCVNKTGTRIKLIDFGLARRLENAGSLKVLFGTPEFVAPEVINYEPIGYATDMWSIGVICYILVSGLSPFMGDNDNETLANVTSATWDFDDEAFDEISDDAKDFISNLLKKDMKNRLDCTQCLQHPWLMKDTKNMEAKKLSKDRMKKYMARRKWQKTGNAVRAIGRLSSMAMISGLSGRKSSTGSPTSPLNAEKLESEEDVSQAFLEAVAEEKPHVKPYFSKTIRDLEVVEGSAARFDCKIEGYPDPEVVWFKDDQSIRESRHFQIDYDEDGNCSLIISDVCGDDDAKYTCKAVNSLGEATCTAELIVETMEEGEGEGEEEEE
CHEK1 (human), sequence (O14757 whole entry, looked up): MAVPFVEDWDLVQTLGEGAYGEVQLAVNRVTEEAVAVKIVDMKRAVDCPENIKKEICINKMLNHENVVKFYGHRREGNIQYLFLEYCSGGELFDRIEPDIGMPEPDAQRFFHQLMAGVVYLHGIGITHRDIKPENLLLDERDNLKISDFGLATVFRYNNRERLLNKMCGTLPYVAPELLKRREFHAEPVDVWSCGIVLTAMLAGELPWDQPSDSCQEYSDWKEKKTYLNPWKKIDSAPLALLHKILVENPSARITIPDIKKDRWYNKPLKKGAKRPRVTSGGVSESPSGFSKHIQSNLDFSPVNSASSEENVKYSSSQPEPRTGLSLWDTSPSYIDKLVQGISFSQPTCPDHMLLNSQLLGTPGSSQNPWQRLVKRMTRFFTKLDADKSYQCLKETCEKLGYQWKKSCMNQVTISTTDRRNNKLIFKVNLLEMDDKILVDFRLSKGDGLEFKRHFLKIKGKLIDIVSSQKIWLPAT
CDK2 CCNE1 (human), sequence (P24864 whole entry, looked up, other chains not shown): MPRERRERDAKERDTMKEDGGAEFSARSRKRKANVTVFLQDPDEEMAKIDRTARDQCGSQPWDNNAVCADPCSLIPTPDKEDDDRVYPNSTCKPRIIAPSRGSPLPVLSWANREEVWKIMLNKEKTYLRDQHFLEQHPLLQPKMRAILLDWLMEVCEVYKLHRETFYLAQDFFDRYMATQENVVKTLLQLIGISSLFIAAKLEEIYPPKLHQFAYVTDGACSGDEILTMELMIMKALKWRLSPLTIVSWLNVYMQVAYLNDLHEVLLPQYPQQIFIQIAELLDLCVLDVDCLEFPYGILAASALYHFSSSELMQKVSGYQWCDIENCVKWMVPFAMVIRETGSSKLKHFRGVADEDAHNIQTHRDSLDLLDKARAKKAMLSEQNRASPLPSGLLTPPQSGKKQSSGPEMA

O=C(O)c1ccc2c3c1cccc3c(=O)n1c3ccccc3nc21
residual activity (RPS6KA5 KD2 (human)): 104% | residual activity (NEK6 (human)): 115% | residual activity (CLK2 (human)): 91% | residual activity (MYLK2 (human)): 99.6% | residual activity (AURKB (human)): 82.5% | residual activity (EPHA3 (human)): 104% | residual activity (PLK3 (human)): 93.9% | residual activity (MATK (human)): 94% | residual activity (SIK2 (human)): 92.8% | residual activity (TEC (human)): 123% | residual activity (TGFBR1 (human)): 99.4% | residual activity (MAPK3 (human)): 102% | residual activity (HIPK2 (human)): 101% | residual activity (PRKD2 (human)): 86.8% | residual activity (PRKCD (human)): 103% | residual activity (ERBB4 (human)): 105% | residual activity (MYLK (human)): 89.8% | residual activity (SRMS (human)): 106% | residual activity (NEK4 (human)): 60.4% | residual activity (TBK1 (human)): 20.2% | residual activity (NEK9 (human)): 94.1% | residual activity (PTK2B (human)): 69.2% | residual activity (RET (human)): 96.8% | residual activity (ACVR1 (human)): 91.1% | residual activity (FRK (human)): 97.6% | residual activity (PDPK1 (human)): 108% | residual activity (MUSK (human)): 47.1% | residual activity (CDK2 CCNE1 (human)): 90.9% | residual activity [1]: 98.4% | residual activity (SRPK2 (human)): 89.3% | residual activity (NEK2 (human)): 109% | residual activity (FGFR2 (human)): 100% | residual activity (EPHB4 (human)): 90.6% | residual activity (DAPK2 (human)): 91.9% | residual activity (NEK1 (human)): 87.8% | residual activity (CSNK1D (human)): 101% | residual activity (PRKCH (human)): 100% | residual activity (CHEK1 (human)): 101% | residual activity (BTK (human)): 109% | residual activity (NUAK2 (human)): 122% | residual activity (IRAK1 (human)): 61.1% | residual activity (CDK7 CCNH MNAT1 (human)): 92.1%

COc1cc2c(N3CCN(C(=O)Nc4ccc(OC(C)C)cc4)CC3)ncnc2cc1OCCCN1CCCCC1
residual activity (RPS6KA5 KD2 (human)): 109% | residual activity (NEK6 (human)): 87.4% | residual activity (CLK2 (human)): 80.7% | residual activity (MYLK2 (human)): 101% | residual activity (AURKB (human)): 89.6% | residual activity (EPHA3 (human)): 94.7% | residual activity (PLK3 (human)): 99.3% | residual activity (MATK (human)): 79.4% | residual activity (SIK2 (human)): 98.9% | residual activity (TEC (human)): 89% | residual activity (TGFBR1 (human)): 102% | residual activity (MAPK3 (human)): 106% | residual activity (HIPK2 (human)): 91.8% | residual activity (PRKD2 (human)): 96.4% | residual activity (PRKCD (human)): 101% | residual activity (ERBB4 (human)): 97.3% | residual activity (MYLK (human)): 96.6% | residual activity (SRMS (human)): 95.8% | residual activity (NEK4 (human)): 90.3% | residual activity (TBK1 (human)): 97.2% | residual activity (NEK9 (human)): 97.2% | residual activity (PTK2B (human)): 99.3% | residual activity (RET (human)): 91.5% | residual activity (ACVR1 (human)): 145% | residual activity (FRK (human)): 101% | residual activity (PDPK1 (human)): 96.8% | residual activity (MUSK (human)): 99.6% | residual activity (CDK2 CCNE1 (human)): 96.7% | residual activity [1]: 102% | residual activity (SRPK2 (human)): 103% | residual activity (NEK2 (human)): 101% | residual activity (FGFR2 (human)): 99.8% | residual activity (EPHB4 (human)): 95% | residual activity (DAPK2 (human)): 104% | residual activity (NEK1 (human)): 119% | residual activity (CSNK1D (human)): 90.9% | residual activity (PRKCH (human)): 108% | residual activity (CHEK1 (human)): 108% | residual activity (BTK (human)): 102% | residual activity (NUAK2 (human)): 100% | residual activity (IRAK1 (human)): 96.1% | residual activity (CDK7 CCNH MNAT1 (human)): 109%
